Laboratory results published in patent publication US20100222421A1, “Usage of Baicalein in the Preparation of a Pharmaceutical Composition for the Treatment of Traumatic Brain Injury” (National Defense Medical Center, priority 2009, published 2010).

How the values were obtained:
TNF-α protein = experiment: ELISA, TNF-α protein after CCI injury; format: in vivo, rat; settings: single-dose 30 mg kg^-1 i.p.; ipsilateral cortex, 1 day post-injury; P<0.05
Protocol: A previously described CCI injury procedure was utilized (Chen et al., 2003). Male Sprague-Dawley rats, which have body weight of 250-300 g, were anaesthetized with sodium pentobarbital (i.p.; 50 mgkg^−1; Rhone Merieux, Harlow, UK) and placed in a stereotaxic frame. A 5-mm craniotomy was performed over the left parietal cortex, centered on the coronal suture and 3 mm lateral to the sagittal suture. Considerable care was taken to avoid injury to the underlying dura. Injury was made using a pneumatic piston with a rounded metal tip (2.5 mm diameter) that was angled 22.5° C. to the vertical so that the tip was perpendicular with the brain surface at the centre of the craniotomy. A velocity of 4 ms^−1 and a deformation depth 2 mm below the dura were used. […] Body temperature was monitored throughout the surgery by a rectal probe; temperature was maintained at 37.0±0.5° C. using a heated pad. […]
Single-dose baicalein (30 mg kg^−1) or a corresponding volume of vehicle was administered i.p. immediately following injury. […] Testing after injury was as follows: (1) real-time quantitative RT-PCR analysis for TNF-α, IL-1β and IL-6 mRNA expression at 6 h post-injury (n=7 for each group); (2) FluoroJade B (FJB) staining, TNF-α, IL-1β and IL-6 immunohistochemistry, as well as ELISA at 24 h post-injury to assess degenerative neurons and to determine cytokine expression (n=7 for each group). […]

[1] = tested on: rats with controlled cortical impact (CCI) injury; experiment: Tactile adhesive-removal somatosensory test after CCI injury; format: in vivo, rat; settings: P<0.05; for adhesive-removal times versus vehicle-treated rats: days 1, 4 and 7
Protocol: A previously described CCI injury procedure was utilized (Chen et al., 2003). Male Sprague-Dawley rats, which have body weight of 250-300 g, were anaesthetized with sodium pentobarbital (i.p.; 50 mgkg^−1; Rhone Merieux, Harlow, UK) and placed in a stereotaxic frame. A 5-mm craniotomy was performed over the left parietal cortex, centered on the coronal suture and 3 mm lateral to the sagittal suture. Considerable care was taken to avoid injury to the underlying dura. Injury was made using a pneumatic piston with a rounded metal tip (2.5 mm diameter) that was angled 22.5° C. to the vertical so that the tip was perpendicular with the brain surface at the centre of the craniotomy. A velocity of 4 ms^−1 and a deformation depth 2 mm below the dura were used. The bone flap was immediately replaced and sealed, and the scalp was closed with sutures. Body temperature was monitored throughout the surgery by a rectal probe; temperature was maintained at 37.0±0.5° C. using a heated pad. Rats were placed in a heated cage to maintain body temperature, while recovering from anaesthesia. Baicalein (30 mg kg^−1) dissolved in 10% dimethyl sulphoxide (0.25-0.3 mL) or a corresponding volume of vehicle (10% dimethyl sulphoxide) was administered i.p. immediately following injury or daily for 4 days (immediately, 25, 49 and 73 h) after injury. Behaviour testing using the rotarod, tactile adhesive removal, mNSS and beam walk tests was performed at 28 hours as well as 4, 7, 14, 21 and 28 days post-injury. At 14 and 28 days, the animals were killed, perfused intravascularly and their brains were processed with cresyl violet staining to assess contusion volume (n=8 for each group). […] Behaviour testing was performed before CCI and at […] after CCI by an observer who was unaware of the experimental treatments. […] The time required for each rat to remove adhesive from the forelimb was recorded for five trials per day. […] One hour before CCI, mean latency (in seconds) over five trials to remove the contralateral (right) adhesive was recorded as the pre-injury baseline value.

O=c1cc(-c2ccccc2)oc2cc(O)c(O)c(O)c12 [baicalein]
TNF-α protein concentration, % of concentration in vehicle-treated rats (TNF-α protein): 54%
adhesive-removal times, multiple doses versus single dose ([1]; 30 mg kg^-1 i.p., only on day 7 after injury): significantly lower
adhesive-removal times versus vehicle-treated rats ([1]; multiple-dose 30 mg kg^-1 i.p. daily for 4 days): significantly lower
adhesive-removal times versus vehicle-treated rats ([1]; single-dose 30 mg kg^-1 i.p.): significantly lower
